Laboratory results taken from patent publication US20160113905A1, “Polymer composition and polymer material” (INDUSTRIAL TECHNOLOGY RESEARCH INSTITUTE, priority 2012, published 2016).
Where “and” joins values, the source holds several entries; their conditions need not be identical. Equal entries are not always repeated.

The compounds below were run against T1, matrix metalloproteinase-9 (Homo sapiens, UniProt P14780) (assay: not given).
T1 sequence (P14780 107-707 limits assumed, species assumed): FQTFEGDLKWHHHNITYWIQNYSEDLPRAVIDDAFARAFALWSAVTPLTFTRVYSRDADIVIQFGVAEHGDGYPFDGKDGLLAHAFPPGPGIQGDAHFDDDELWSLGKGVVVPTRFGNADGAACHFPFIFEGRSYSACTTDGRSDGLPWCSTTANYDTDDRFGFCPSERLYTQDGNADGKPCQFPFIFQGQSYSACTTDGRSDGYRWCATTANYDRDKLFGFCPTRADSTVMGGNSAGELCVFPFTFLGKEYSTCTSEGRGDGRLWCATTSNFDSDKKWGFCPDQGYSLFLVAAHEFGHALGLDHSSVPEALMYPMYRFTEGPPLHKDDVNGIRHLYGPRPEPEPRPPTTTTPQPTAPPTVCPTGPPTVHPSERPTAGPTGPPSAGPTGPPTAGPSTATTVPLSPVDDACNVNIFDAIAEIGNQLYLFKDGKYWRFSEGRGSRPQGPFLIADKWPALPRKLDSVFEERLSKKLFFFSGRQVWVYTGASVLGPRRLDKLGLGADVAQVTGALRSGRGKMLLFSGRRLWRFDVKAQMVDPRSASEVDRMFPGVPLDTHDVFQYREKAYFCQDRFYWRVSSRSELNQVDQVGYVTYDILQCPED

Compound | inhibition
histidine grafted-poly(ethylene vinyl-co-alcohol) derivative [EVOH-g-BocHis] | 26.2% and 22.9%

Each compound was assayed against T1, matrix metalloproteinase-9 (assay: Inhibition test of matrix metalloproteinase-9 activity (fluorogenic substrate, activated pro-MMP-9)).
Description: Step 1: Activation of Pro-Matrix Metalloproteinase-9
100 nM APMA (final concentration 1 M) as added to a 10 μg/ml of pro-matrix metalloproteinase-9 solution (R&D), and reacted in a 37° C. incubator for 2 hours to convert pro matrix metalloproteinase-9 to activated pro-matrix metalloproteinase-9
The activated pro-matrix metalloproteinase-9 was diluted with matrix metalloproteinase-9 activity analysis buffer (50 mM Tris, 10 mM CaCl2, 150 mM NaCl, 0.05% Brij-35(w/v), pH 7.5) to a concentration of 10 ng/ml. Activated pro-matrix metalloproteinase-9 was added to each test sample and placed in a 37° C. incubator for reaction for 2 or 24 hours. The negative control group contained no activated pro-matrix metalloproteinase-9 solution to test the response of the sample, and positive control added metalloproteinase-9 activity inhibitor, 1,10-Phenanthroline (1,10-PT) (final concentration: 0.1 mM), to the activated pro-matrix metalloproteinase-9 solution.
Step 3: Analysis for Matrix Metalloproteinase-9
The activated pro-matrix metalloproteinase-9 solution after being reacted with the material was taken in a 96-well black plate. Equal volume of substrate for matrix metalloproteinase-9 was added to the 96-well black plate and reacted in a 37° C. incubator for 0.5-1 hour, and then the fluorescence (Ex/Em=320/405 nm) of the reaction was determined by a high sensitivity fluorescence reader (Flexstation3).

Compound | IC50 [mM]
CC(C)(C)OC(=O)N[C@@H](Cc1c[nH]cn1)C(=O)O [BocHis, Boc-histidine, reference compound] | 10.3

Target: T1, matrix metalloproteinase-9
Assay: not given
Remark: another data set of the same source

Compound | inhibition
CC(C)(C)OC(=O)N[C@@H](Cc1c[nH]cn1)C(=O)O [BocHis, Boc-histidine, reference compound] | 76.8%
histidine grafted-hydroxypropyl methylcellulose derivative [Lot 5] | 33.2%
histidine grafted-hydroxypropyl methylcellulose derivative [Lot 6] | 42.4% and 37.3%
histidine grafted-hydroxypropyl methylcellulose derivative [Lot 7] | 36.4%
histidine grafted-poly(ethylene vinyl-co-alcohol) derivative [Lot 3] | 43.7%
histidine grafted-poly(ethylene vinyl-co-alcohol) derivative [Lot 4] | 38.2%
histidine grafted-polyvinyl alcohol derivative [Lot 2] | 41%
